Target: T1, Humane Glykogenphosphorylase a (Homo sapiens, UniProt P06737)
T1 sequence (P06737 1-847): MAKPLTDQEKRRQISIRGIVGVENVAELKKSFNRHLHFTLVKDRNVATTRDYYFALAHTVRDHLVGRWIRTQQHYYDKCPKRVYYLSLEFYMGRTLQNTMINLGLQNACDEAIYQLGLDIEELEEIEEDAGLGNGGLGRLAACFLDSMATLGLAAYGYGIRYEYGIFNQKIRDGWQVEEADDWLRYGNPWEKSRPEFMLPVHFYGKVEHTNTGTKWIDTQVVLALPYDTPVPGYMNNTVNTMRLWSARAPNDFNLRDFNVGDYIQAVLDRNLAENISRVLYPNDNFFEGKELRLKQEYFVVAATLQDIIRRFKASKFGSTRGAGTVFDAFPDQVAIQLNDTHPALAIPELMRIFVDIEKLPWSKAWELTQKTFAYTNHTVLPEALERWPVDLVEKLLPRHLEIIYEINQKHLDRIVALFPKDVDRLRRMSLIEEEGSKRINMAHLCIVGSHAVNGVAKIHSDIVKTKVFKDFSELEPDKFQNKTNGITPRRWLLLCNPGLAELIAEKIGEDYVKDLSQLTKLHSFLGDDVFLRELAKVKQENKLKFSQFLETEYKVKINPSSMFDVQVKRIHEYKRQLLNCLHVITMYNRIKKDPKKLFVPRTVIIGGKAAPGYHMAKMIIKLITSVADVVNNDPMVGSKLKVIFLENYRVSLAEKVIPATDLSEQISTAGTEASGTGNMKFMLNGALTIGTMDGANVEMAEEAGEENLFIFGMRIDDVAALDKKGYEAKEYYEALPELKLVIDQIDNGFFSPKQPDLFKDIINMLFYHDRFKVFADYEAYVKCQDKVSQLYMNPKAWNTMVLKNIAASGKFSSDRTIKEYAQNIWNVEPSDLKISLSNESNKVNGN
Experiment: Glycogen phosphorylase a activity test (reverse direction, release of inorganic phosphate)
Format: biochemical
Conditions: 10 µM test substance, in vitro, 40 min at room temperature, absorbance at 820 nm; for inhibition at 10 µM: read-out: % Inhibition bei 10 µM
Experimental: Glykogenphosphorylase a Aktivitätstest
Der Effekt von Verbindungen auf die Aktivität der aktiven Form der Glykogenphosphorylase (GPa) wurde in der umgekehrten Richtung, durch Verfolgen der Glykogensynthese aus Glukose-1-Phosphat an Hand der Bestimmung der Freisetzung von anorganischem Phosphat, gemessen.
Prüfsubstanzen wurden als 10 mM Lösung in DMSO zubereitet und auf 50 µM mit Pufferlösung T verdünnt. Zu 10 µl dieser Lösung wurden 10 µl 37,5 mM Glukose, gelöst in Pufferlösung T und 5 mg/mL Glykogen, sowie 10 µl einer Lösung von humaner Glykogenphosphorylase a ([…]) und 20 µl Glukose-1-Phosphat, 2,5 mM zugegeben. Der basale Wert der Glykogenphosphorylase a Aktivität in Abwesenheit von Prüfsubstanz wurde durch Zugabe von 10 µl Pufferlösung T (0,1 % DMSO) bestimmt. […] Zur Bestimmung der Hintergrundsabsorption wurde in einem separaten Ansatz die Stop-Lösung unmittelbar nach Zugabe der Glukose-1-Phosphatlösung zugegeben.
Dieser Test wurde mit einer Konzentrationen von 10 µM der Prüfsubstanz durchgeführt, um die jeweilige Hemmung der Glykogenphosphorylase a in vitro durch die Prüfsubstanz zu bestimmen. Tabelle 2: Biologische Aktivität

| Structure (SMILES) | inhibition at 10 µM [%] | % Inhibition bei 10 µM [%] |
| --- | --- | --- |
| CCOC(=O)c1ccc(NC(=O)NC(=O)c2c(F)cccc2F)cc1 [Vergleichsbeispiel A, reference compound] | 3 | – |
| O=C(NC(=O)c1ccccc1Cl)Nc1ccc(C(=O)O)cc1[N+](=O)[O-] [compound 1] | 71 | – |
| O=C(NC(=O)c1ccc(Cl)cc1Cl)Nc1ccc(C(=O)O)cc1[N+](=O)[O-] [compound 2] | 85 | – |
| O=C(NC(=O)c1ccc(Cl)cc1Cl)Nc1ccc(C(=O)O)cc1O [compound 5] | 80 | – |
| NC(CO)(CO)CO.O=C(NC(=O)c1cc(F)c(F)cc1Cl)Nc1ccc(C(=O)O)cc1OC(F)(F)F [compound 49, 4-[3-(2-Chlor-4,5-difluor-benzoyl)-ureido]-3-trifluoromethoxy-benzoesäure TRIS-Salz] | – | 103 |

From patent publication EP1497262B1, “ACYL-4-CARBOXYPHENYLUREA DERIVATIVES, METHOD FOR PRODUCTION AND USE THEREOF” (Sanofi-Aventis Deutschland GmbH, priority 2002, dated 2003)
